The experiment concerns Mycosphaerella graminicola; Anamorph: Septoria tritici; Bayer Code SEPTTR. Briefly: Leaf blotch of wheat, foliar fungicide treatment, one day protectant (1DP) or three day curative (3DC). The note with it: Zymoseptoria tritici; for pest or weed control at 50 ppm / pest or weed control at 200 ppm: % disease control rating, one day protectant; for pest or weed control at 25 ppm / pest or weed control at 100 ppm: percent control rating; for pest or weed control at 100 ppm: read-out: SEPTTR 3DC 100 ppm. In kind it is in vivo, Septoria tritici on wheat plants (variety Yuma).

Setting [1] is: 24 h, one day protectant (1DP), 25 ppm (first 1DP column), read-out: SETTTR 1DP 25 ppm.
The mark [2] stands for this setting: 24 h, one day protectant (1DP), 25 ppm as printed (second 1DP column), read-out: SETTTR 1DP 25 ppm.
[3] abbreviates: 72 h, three day curative (3DC), 25 ppm, read-out: SEPTTR 3DC 25 ppm.

Each structure is given as a SMILES string. Where two headings read alike, the source gives them in different places.

With `Fc1cnc(OCc2ccco2)nc1NCc1cccs1` [Compound 899], under “24 h”, the pest or weed control at 50 ppm fell in the range of 26 to 50% and the pest or weed control at 200 ppm was 76 to 100%.
In the same order, the values of `Cc1cnc(CNc2nc(OCc3ccc(F)cc3)ncc2F)cn1` [Compound 900] are 51 to 75% and 76 to 100%.
In the same order, the values of `Fc1ccc(COc2ncc(F)c(NCc3ccc(Cl)nc3)n2)cc1` [Compound 901] are 51 to 75% and 76 to 100%.
Take `Fc1cnc(OCc2ccncc2)nc1NCc1cccs1` [Compound 902]: the pest or weed control at 200 ppm (24 h) was in the range of 76 to 100%.
Regarding `Fc1cnc(OC2CCCCC2)nc1NCc1ccc(Cl)cc1` [Compound 903], where the note is “24 h”, the pest or weed control at 50 ppm was in the range of 0 to 25% and the pest or weed control at 200 ppm was 76 to 100%.
The corresponding values for `Fc1cnc(OCCc2ccccc2)nc1NCc1ccc2c(c1)OCO2` [Compound 904] are 0 to 25% and 26 to 50%.
The corresponding values for `Fc1cnc(OCC(F)(F)F)nc1NCc1ccc(Cl)cc1` [Compound 905] are 26 to 50% and 51 to 75%.
`COc1ccc(COc2ncc(F)c(NCc3cccs3)n2)cc1` [Compound 906] had a pest or weed control at 200 ppm (24 h) of 76 to 100%.
`Fc1ccccc1CNc1nc(OCc2cc(Cl)cc(Cl)c2)ncc1F` [Compound 907]: for the setting “24 h”, the pest or weed control at 50 ppm is 51 to 75% and the pest or weed control at 200 ppm lay in the range of 76 to 100%.
In the same order, the values of `Fc1cnc(OCc2ccc(Cl)cc2)nc1NCCc1ccccc1` [Compound 908] are 76 to 100% and 76 to 100%.
As to `Fc1cnc(OCc2ccc(Cl)c(Cl)c2)nc1NC1CC1` [Compound 909], the pest or weed control at 200 ppm (24 h) is 76 to 100%.
Still for that read-out and setting: to `Fc1cccc(COc2ncc(F)c(NCc3cccs3)n2)c1` [Compound 910] belongs 76 to 100%.
As to `Fc1cnc(OCCc2ccccc2)nc1NCc1ccc(Cl)cc1` [Compound 911], where the note is “24 h”, the pest or weed control at 50 ppm was in the range of 0 to 25% and the pest or weed control at 200 ppm lay in the range of 0 to 25%.
For the compound `Fc1cnc(OCc2cccc(Cl)c2)nc1NCc1cccs1` [Compound 912], the pest or weed control at 200 ppm (24 h) fell in the range of 76 to 100%.
`Fc1ccccc1CNc1nc(OCc2ccncc2)ncc1F` [Compound 913]: where the note is “24 h”, the pest or weed control at 50 ppm was 76 to 100% and the pest or weed control at 200 ppm is 76 to 100%.
As to `Cc1ccc(CNc2nc(OCc3ccco3)ncc2F)cc1` [Compound 914], for the setting “24 h”, the pest or weed control at 50 ppm lay in the range of 0 to 25% and the pest or weed control at 200 ppm was 76 to 100%.
For `Fc1cnc(OCC(F)(F)F)nc1NCc1ccc(Cl)nc1` [Compound 915], for the setting “24 h”, the pest or weed control at 50 ppm was in the range of 0 to 25% and the pest or weed control at 200 ppm fell in the range of 0 to 25%.
As to `Cc1ccc(COc2ncc(F)c(NCc3cnc(C)cn3)n2)cc1` [Compound 916], under “24 h”, the pest or weed control at 50 ppm fell in the range of 76 to 100% and the pest or weed control at 200 ppm lay within 76 to 100%.
Under “24 h”, `C=CCOc1ncc(F)c(NCc2ccccc2F)n1` [Compound 917] registered a pest or weed control at 50 ppm of 0 to 25% and a pest or weed control at 200 ppm of 51 to 75%.
Where the note is “24 h”, `Fc1ccccc1CNc1nc(OCc2ccc(Cl)cc2)ncc1F` [Compound 918] came in with a pest or weed control at 50 ppm of 76 to 100% and a pest or weed control at 200 ppm of 76 to 100%.
Regarding `Fc1cnc(OCc2ccc3c(c2)OCO3)nc1NC1CC1` [Compound 919], under “24 h”, the pest or weed control at 200 ppm was in the range of 76 to 100%.
Turning to `Cc1ccc(CNc2nc(OCc3ccc(Cl)cc3)ncc2F)cc1` [Compound 920], under “24 h”, the pest or weed control at 50 ppm was 76 to 100% and the pest or weed control at 200 ppm was 76 to 100%.
Take `Fc1ccc(COc2ncc(F)c(NCc3ccccc3F)n2)c(F)c1` [Compound 921]: where the note is “24 h”, the pest or weed control at 50 ppm fell in the range of 76 to 100% and the pest or weed control at 200 ppm is 76 to 100%.
In the case of `Cc1ccc(CNc2nc(OCc3cccs3)ncc2F)cc1` [Compound 922], where the note is “24 h”, the pest or weed control at 50 ppm was 51 to 75% and the pest or weed control at 200 ppm fell in the range of 26 to 50%.
In the case of `Fc1ccc(COc2ncc(F)c(NCc3cccs3)n2)c(F)c1` [Compound 923], under “24 h”, the pest or weed control at 200 ppm was in the range of 76 to 100%.
Where the note is “24 h”, `Fc1ccccc1CNc1nc(OCc2cccc(Cl)c2)ncc1F` [Compound 924] showed a pest or weed control at 50 ppm of 76 to 100% and a pest or weed control at 200 ppm of 76 to 100%.
`Fc1cnc(OCc2ccc(Cl)cc2)nc1N1CCOCC1` [Compound 925]: under “24 h”, the pest or weed control at 50 ppm was in the range of 0 to 25% and the pest or weed control at 200 ppm was 0 to 25%.
For the setting “24 h”, `Cc1ccc(COc2ncc(F)c(NCCc3ccccc3)n2)cc1` [Compound 926] came in with a pest or weed control at 50 ppm of 76 to 100% and a pest or weed control at 200 ppm of 76 to 100%.
Regarding `Fc1ccc(COc2ncc(F)c(NC3CC3)n2)cc1` [Compound 927], where the note is “24 h”, the pest or weed control at 50 ppm lay in the range of 51 to 75% and the pest or weed control at 200 ppm was in the range of 76 to 100%.
In the same order, the values of `Fc1ccccc1CNc1nc(OCc2ccc3c(c2)OCO3)ncc1F` [Compound 928] are 76 to 100% and 76 to 100%.
As to `COc1ccc(COc2ncc(F)c(NCc3ccc(Cl)cc3)n2)cc1` [Compound 929], under “24 h”, the pest or weed control at 50 ppm lay within 51 to 75% and the pest or weed control at 200 ppm lay in the range of 76 to 100%.
The corresponding values for `Cc1ccc(COc2ncc(F)c(NCc3ccccc3F)n2)cc1` [Compound 930] are 0 to 25% and 76 to 100%.
With `COc1cccc(COc2ncc(F)c(NCc3cccs3)n2)c1` [Compound 931], the pest or weed control at 200 ppm (24 h) fell in the range of 76 to 100%.
`C=CCOc1ncc(F)c(N)n1` [Compound 932]: for the setting “24 h”, the pest or weed control at 50 ppm fell in the range of 76 to 100% and the pest or weed control at 200 ppm was 76 to 100%.
For the setting “24 h”, `Cc1cnc(CNc2nc(OCCc3ccccc3)ncc2F)cn1` [Compound 934] showed a pest or weed control at 50 ppm of 0 to 25% and a pest or weed control at 200 ppm of 26 to 50%.
The corresponding values for `Fc1cnc(OCc2ccccn2)nc1NCc1ccc(Cl)cc1` [Compound 935] are 26 to 50% and 76 to 100%.
In the same order, the values of `Nc1nc(OCCc2ccccc2)ncc1F` [Compound 936] are 76 to 100% and 76 to 100%.
Under “24 h”, `Fc1cnc(OCc2cccs2)nc1NCCc1ccccc1` [Compound 937] had a pest or weed control at 50 ppm of 76 to 100% and a pest or weed control at 200 ppm of 76 to 100%.
Compound `Fc1ccc(COc2ncc(F)c(NC3CC3)n2)cc1F` [Compound 938] returned a pest or weed control at 200 ppm (24 h) of 76 to 100%.
For the setting “24 h”, `Cc1cc(COc2ncc(F)c(N)n2)no1` [Compound 939] displayed a pest or weed control at 50 ppm of 0 to 25% and a pest or weed control at 200 ppm of 76 to 100%.
As for `Fc1cnc(OCCc2ccccc2)nc1NC1CC1` [Compound 940], where the note is “24 h”, the pest or weed control at 50 ppm was 0 to 25% and the pest or weed control at 200 ppm was in the range of 0 to 25%.
For the setting “24 h”, `Fc1cnc(OCc2ccc(Cl)cc2Cl)nc1NCc1ccc(Cl)cc1` [Compound 942] registered a pest or weed control at 50 ppm of 76 to 100% and a pest or weed control at 200 ppm of 76 to 100%.
For the setting “24 h”, `Fc1ccccc1CNc1nc(OCc2c(Cl)cccc2Cl)ncc1F` [Compound 943] came in with a pest or weed control at 50 ppm of 51 to 75% and a pest or weed control at 200 ppm of 76 to 100%.
The corresponding values for `Fc1cnc(OCc2ccco2)nc1N1CCOCC1` [Compound 944] are 0 to 25% and 0 to 25%.
In the same order, the values of `Fc1cnc(OCc2cccs2)nc1NCc1ccc(Cl)cc1` [Compound 945] are 76 to 100% and 76 to 100%.
The corresponding values for `Fc1cnc(OCc2ccco2)nc1NCc1ccc(Cl)cc1` [Compound 946] are 51 to 75% and 76 to 100%.
As for `CC(=O)Nc1nc(OCc2ccc(C(F)(F)F)cc2)ncc1F` [Compound 947], for the setting “24 h”, the pest or weed control at 50 ppm was 76 to 100% and the pest or weed control at 200 ppm lay within 76 to 100%.
As for `Fc1ccccc1CNc1nc(OCCc2ccccc2)ncc1F` [Compound 948], where the note is “24 h”, the pest or weed control at 50 ppm was in the range of 0 to 25% and the pest or weed control at 200 ppm was in the range of 0 to 25%.
Turning to `Cc1ccc(COc2ncc(F)c(NCc3cccs3)n2)cc1` [Compound 949], where the note is “24 h”, the pest or weed control at 50 ppm was in the range of 51 to 75% and the pest or weed control at 200 ppm lay in the range of 76 to 100%.
In the same order, the values of `Fc1cnc(OCC(F)(F)F)nc1NCc1ccc2c(c1)OCO2` [Compound 950] are 0 to 25% and 0 to 25%.
In the same order, the values of `Cc1ccc(CNc2nc(OCc3ccc(F)cc3)ncc2F)cc1` [Compound 951] are 51 to 75% and 76 to 100%.
Regarding `Fc1ccccc1CNc1nc(OCc2ccc(OC(F)(F)F)cc2)ncc1F` [Compound 953], where the note is “24 h”, the pest or weed control at 50 ppm lay in the range of 26 to 50% and the pest or weed control at 200 ppm is 76 to 100%.
For `COc1ccccc1NC(=O)Nc1nc(O)ncc1F` [Compound 954, 1-(5-Fluoro-2-hydroxypyrimidin-4-yl)-3-(2-methoxyphenyl)urea], the pest or weed control at 25 ppm runs as follows: under setting [1], 26 to 50%; under setting [2], 26 to 50%; under setting [3], 26 to 50%. The pest or weed control at 100 ppm (72 h, three day curative (3DC)) is 51 to 75%.
In the case of `Cc1ccc(COc2ncc(F)c(NS(=O)(=O)c3ccc(C)cc3)n2)cc1` [Compound 955, N-(5-Fluoro-2-(4-methylbenzyloxy)pyrimidin-4-yl)-4-methylbenzenesulfonamide], the pest or weed control at 25 ppm reads like this: under setting [1], 0 to 25%; under setting [2], 0 to 25%; under setting [3], 0 to 25%. Further, the pest or weed control at 100 ppm (72 h, three day curative (3DC)) lay within 0 to 25%.
With `O=S(=O)(Nc1nc(O)ncc1F)c1ccccc1` [Compound 956, N-(5-Fluoro-2-hydroxypyrimidin-4-yl)benzenesulfonamide], the pest or weed control at 25 ppm under setting [1] lay in the range of 0 to 25%, the pest or weed control at 25 ppm under setting [2] was in the range of 0 to 25% and the pest or weed control at 25 ppm under setting [3] lay in the range of 0 to 25%. Besides, the pest or weed control at 100 ppm (72 h, three day curative (3DC)) lay within 0 to 25%.

These data come from patent US9204653B2, “5-fluoro pyrimidine derivatives” (DOW AGROSCIENCES LLC, priority 2008, dated 2015).
